Assay results from patent US20230085307A1, “PYRIDAZINONE COMPOUND AND HERBICIDE” (NISSAN CHEMICAL CORPORATION, priority 2019, published 2023).

Columns and labels:
late watergrass = experiment: Test Example 1: herbicidal activity, application before weed generation under submerged conditions (Table 16, symbol A); type: in vivo, late watergrass (Echinochloa oryzicola); conditions: amount of applied herbicide 320 g/ha
Procedure, shortened: (§1)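 Alluvial soil was flooded to 4 cm depth, weed seeds were sown mixed and 2.5-leaf rice seedlings were transplanted. On sowing day, the compound's emulsion, diluted in water to a set dose, was applied to the water surface. Plants grew at 25–30 °C and were scored 0–5 after three weeks.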

Japanese bulrush = experiment: Test Example 1: herbicidal activity, application before weed generation under submerged conditions (Table 16, symbol B); type: in vivo, Japanese bulrush (Schoenoplectus juncoides); conditions: amount of applied herbicide 320 g/ha
Procedure, shortened: as §1

oval-leafed pondweed = experiment: Test Example 1: herbicidal activity, application before weed generation under submerged conditions (Table 16, symbol C); type: in vivo, oval-leafed pondweed (Monochoria vaginalis); conditions: amount of applied herbicide 320 g/ha
Procedure, shortened: as §1

barnyard grass [1] = experiment: Test Example 3: herbicidal effect by foliage application, Wagner pot (Table 18, symbol H); type: in vivo, barnyard grass (Echinochloa crus-galli)
Procedure, shortened: (§2)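 Plants were sown in alluvial soil held under 0.1–0.5 cm standing water and grown 14 days in a greenhouse at 25–30 °C. An emulsifiable formulation, water-diluted to the set dose, was then sprayed onto the foliage, and effects were scored three weeks later using previously defined criteria.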

Chinese sprangletop = experiment: Test Example 3: herbicidal effect by foliage application, Wagner pot (Table 18, symbol D); type: in vivo, chinese sprangletop (Leptochloa chinensis)
Procedure, shortened: as §2

rice flat sedge = experiment: Test Example 3: herbicidal effect by foliage application, Wagner pot (Table 18, symbol E); type: in vivo, rice flat sedge (Cyperus iria)
Procedure, shortened: as §2

southern crabgrass [2] = experiment: Test Example 4: herbicidal effect by soil treatment (Table 19, symbol F); type: in vivo, southern crabgrass (Digitaria ciliaris); conditions: amount of applied herbicide 320 g/ha
Procedure, shortened: (§3)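 Scoring uses the grading scale of an earlier test, three weeks post-application. Treatment consists of spraying a diluted emulsion formulation across the surface of sterilized diluvial soil in which seeds are buried near 1.5 cm deep; boxes are kept in a greenhouse between 25° C. and 30° C.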

green foxtail [3] = experiment: Test Example 4: herbicidal effect by soil treatment (Table 19, symbol G); type: in vivo, green foxtail (Setaria viridis); conditions: amount of applied herbicide 320 g/ha
Procedure, shortened: as §3

barnyard grass [4] = experiment: Test Example 4: herbicidal effect by soil treatment (Table 19, symbol H); type: in vivo, barnyard grass (Echinochloa crus-galli); conditions: amount of applied herbicide 320 g/ha
Procedure, shortened: as §3

wild oat [5] = experiment: Test Example 4: herbicidal effect by soil treatment (Table 19, symbol I); type: in vivo, wild oat (Avena fatua); conditions: amount of applied herbicide 320 g/ha
Procedure, shortened: as §3

blackgrass [6] = experiment: Test Example 4: herbicidal effect by soil treatment (Table 19, symbol J); type: in vivo, blackgrass (Alopecurus myosuroides); conditions: amount of applied herbicide 320 g/ha
Procedure, shortened: as §3

Italian ryegrass [7] = experiment: Test Example 4: herbicidal effect by soil treatment (Table 19, symbol K); type: in vivo, Italian ryegrass (Lolium multiflorum); conditions: amount of applied herbicide 320 g/ha
Procedure, shortened: as §3

windgrass [8] = experiment: Test Example 4: herbicidal effect by soil treatment (Table 19, symbol L); type: in vivo, windgrass (Apera spica-venti); conditions: amount of applied herbicide 320 g/ha
Procedure, shortened: as §3

velvetleaf [9] = experiment: Test Example 4: herbicidal effect by soil treatment (Table 19, symbol M); type: in vivo, velvetleaf (Abutilon theophrasti); conditions: amount of applied herbicide 320 g/ha
Procedure, shortened: as §3

redroot pigweed [10] = experiment: Test Example 4: herbicidal effect by soil treatment (Table 19, symbol N); type: in vivo, redroot pigweed (Amaranthus retroflexus); conditions: amount of applied herbicide 320 g/ha
Procedure, shortened: as §3

lambsquarters [11] = experiment: Test Example 4: herbicidal effect by soil treatment (Table 19, symbol O); type: in vivo, lambsquarters (Chenopodium album); conditions: amount of applied herbicide 320 g/ha
Procedure, shortened: as §3

chickweed [12] = experiment: Test Example 4: herbicidal effect by soil treatment (Table 19, symbol P); type: in vivo, common chickweed (Stellaria media); conditions: amount of applied herbicide 320 g/ha
Procedure, shortened: as §3

persian speedwell [13] = experiment: Test Example 4: herbicidal effect by soil treatment (Table 19, symbol R); type: in vivo, Persian speedwell (Veronica persica); conditions: amount of applied herbicide 320 g/ha
Procedure, shortened: as §3

southern crabgrass [14] = experiment: Test Example 5: herbicidal effect by foliage application, plastic box (Table 20, symbol F); type: in vivo, southern crabgrass (Digitaria ciliaris); conditions: foliage application, 320 g/ha, three weeks after application
Procedure, shortened: (§4)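 Post-emergence foliar test in sterilized diluvial soil. Compound applied as water-diluted emulsion at a predetermined rate to 14-day-old plants; evaluation at three weeks.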

green foxtail [15] = experiment: Test Example 5: herbicidal effect by foliage application, plastic box (Table 20, symbol G); type: in vivo, green foxtail (Setaria viridis); conditions: foliage application, 320 g/ha, three weeks after application
Procedure, shortened: as §4

barnyard grass [16] = experiment: Test Example 5: herbicidal effect by foliage application, plastic box (Table 20, symbol H); type: in vivo, barnyard grass (Echinochloa crus-galli); conditions: foliage application, 320 g/ha, three weeks after application
Procedure, shortened: as §4

wild oat [17] = experiment: Test Example 5: herbicidal effect by foliage application, plastic box (Table 20, symbol I); type: in vivo, wild oat (Avena fatua); conditions: foliage application, 320 g/ha, three weeks after application
Procedure, shortened: as §4

blackgrass [18] = experiment: Test Example 5: herbicidal effect by foliage application, plastic box (Table 20, symbol J); type: in vivo, blackgrass (Alopecurus myosuroides); conditions: foliage application, 320 g/ha, three weeks after application
Procedure, shortened: as §4

Italian ryegrass [19] = experiment: Test Example 5: herbicidal effect by foliage application, plastic box (Table 20, symbol K); type: in vivo, Italian ryegrass (Lolium multiflorum); conditions: foliage application, 320 g/ha, three weeks after application
Procedure, shortened: as §4

windgrass [20] = experiment: Test Example 5: herbicidal effect by foliage application, plastic box (Table 20, symbol L); type: in vivo, windgrass (Apera spica-venti); conditions: foliage application, 320 g/ha, three weeks after application
Procedure, shortened: as §4

velvetleaf [21] = experiment: Test Example 5: herbicidal effect by foliage application, plastic box (Table 20, symbol M); type: in vivo, velvetleaf (Abutilon theophrasti); conditions: foliage application, 320 g/ha, three weeks after application
Procedure, shortened: as §4

redroot pigweed [22] = experiment: Test Example 5: herbicidal effect by foliage application, plastic box (Table 20, symbol N); type: in vivo, redroot pigweed (Amaranthus retroflexus); conditions: foliage application, 320 g/ha, three weeks after application
Procedure, shortened: as §4

lambsquarters [23] = experiment: Test Example 5: herbicidal effect by foliage application, plastic box (Table 20, symbol O); type: in vivo, lambsquarters (Chenopodium album); conditions: foliage application, 320 g/ha, three weeks after application
Procedure, shortened: as §4

chickweed [24] = experiment: Test Example 5: herbicidal effect by foliage application, plastic box (Table 20, symbol P); type: in vivo, common chickweed (Stellaria media); conditions: foliage application, 320 g/ha, three weeks after application
Procedure, shortened: as §4

persian speedwell [25] = experiment: Test Example 5: herbicidal effect by foliage application, plastic box (Table 20, symbol R); type: in vivo, Persian speedwell (Veronica persica); conditions: foliage application, 320 g/ha, three weeks after application
Procedure, shortened: as §4

[26] = amount of applied herbicide 320 g/ha

| SMILES | Herbicidal effect, A: late watergrass (late watergrass) | Herbicidal effect, B: Japanese bulrush (Japanese bulrush) | Herbicidal effect, C: oval-leafed pondweed (oval-leafed pondweed) | F: southern crabgrass, herbicidal effect grade (southern crabgrass [14]) | G: green foxtail, herbicidal effect grade (green foxtail [15]) | H: barnyard grass, herbicidal effect grade (barnyard grass [16]) | I: wild oat, herbicidal effect grade (wild oat [17]) | J: blackgrass, herbicidal effect grade (blackgrass [18]) | K: Italian ryegrass, herbicidal effect grade (Italian ryegrass [19]) | L: windgrass, herbicidal effect grade (windgrass [20]) | M: velvetleaf, herbicidal effect grade (velvetleaf [21]) | N: redroot pigweed, herbicidal effect grade (redroot pigweed [22]) | O: lambsquarters, herbicidal effect grade (lambsquarters [23]) | P: chickweed, herbicidal effect grade (chickweed [24]) | R: persian speedwell, herbicidal effect grade (persian speedwell [25]) | further results |
| --- | --- | --- | --- | --- | --- | --- | --- | --- | --- | --- | --- | --- | --- | --- | --- | --- |
| COc1ccccc1-c1sc2cc(F)ccc2c1-c1c(OC(=O)COc2ccccc2)c(C)nn(C)c1=O [3-021] | 3 (Herbicidal rate of 40% or more and less than 70%) | 3 (Herbicidal rate of 40% or more and less than 70%) | 4 (Herbicidal rate of 70% or more and less than 90%) | 4 (Herbicidal rate of 70% or more and less than 90%) | 5 (Herbicidal rate of 90% or more (almost completely withered)) | 5 (Herbicidal rate of 90% or more (almost completely withered)) | 4 (Herbicidal rate of 70% or more and less than 90%) | 4 (Herbicidal rate of 70% or more and less than 90%) | 4 (Herbicidal rate of 70% or more and less than 90%) | 5 (Herbicidal rate of 90% or more (almost completely withered)) | 5 (Herbicidal rate of 90% or more (almost completely withered)) | 5 (Herbicidal rate of 90% or more (almost completely withered)) | 5 (Herbicidal rate of 90% or more (almost completely withered)) | 5 (Herbicidal rate of 90% or more (almost completely withered)) | 4 (Herbicidal rate of 70% or more and less than 90%) | herbicidal effect on H: barnyard grass (barnyard grass [1]; [26]): 5 (Herbicidal rate of 90% or more (almost completely withered)); herbicidal effect on D: Chinese sprangletop (Chinese sprangletop; [26]): 3 (Herbicidal rate of 40% or more and less than 70%); herbicidal effect on E: rice flat sedge (rice flat sedge; [26]): 5 (Herbicidal rate of 90% or more (almost completely withered)); herbicidal effect, F: southern crabgrass (southern crabgrass [2]): 3 (Herbicidal rate of 40% or more and less than 70%); herbicidal effect, G: green foxtail (green foxtail [3]): 4 (Herbicidal rate of 70% or more and less than 90%); herbicidal effect, H: barnyard grass (barnyard grass [4]): 4 (Herbicidal rate of 70% or more and less than 90%); herbicidal effect, I: wild oat (wild oat [5]): 1 (Herbicidal rate of 5% or more and less than 20%); herbicidal effect, J: blackgrass (blackgrass [6]): 4 (Herbicidal rate of 70% or more and less than 90%); herbicidal effect, K: Italian ryegrass (Italian ryegrass [7]): 4 (Herbicidal rate of 70% or more and less than 90%); herbicidal effect, L: windgrass (windgrass [8]): 3 (Herbicidal rate of 40% or more and less than 70%); herbicidal effect, M: velvetleaf (velvetleaf [9]): 0 (Herbicidal rate of 5% or less (almost no effect)); herbicidal effect, N: redroot pigweed (redroot pigweed [10]): 4 (Herbicidal rate of 70% or more and less than 90%); herbicidal effect, O: lambsquarters (lambsquarters [11]): 4 (Herbicidal rate of 70% or more and less than 90%); herbicidal effect, P: chickweed (chickweed [12]): 3 (Herbicidal rate of 40% or more and less than 70%); herbicidal effect, R: persian speedwell (persian speedwell [13]): 4 (Herbicidal rate of 70% or more and less than 90%) |
| Cc1nn(C)c(=O)c(-c2c(-c3ccc4c(c3)OCCO4)sc3cc(Cl)ccc23)c1O [3-047] | 3 (Herbicidal rate of 40% or more and less than 70%) | 2 (Herbicidal rate of 20% or more and less than 40%) | 0 (Herbicidal rate of 5% or less (almost no effect)) | 0 (Herbicidal rate of 5% or less (almost no effect)) | 0 (Herbicidal rate of 5% or less (almost no effect)) | 0 (Herbicidal rate of 5% or less (almost no effect)) | 0 (Herbicidal rate of 5% or less (almost no effect)) | 0 (Herbicidal rate of 5% or less (almost no effect)) | 0 (Herbicidal rate of 5% or less (almost no effect)) | 0 (Herbicidal rate of 5% or less (almost no effect)) | 1 (Herbicidal rate of 5% or more and less than 20%) | 0 (Herbicidal rate of 5% or less (almost no effect)) | 2 (Herbicidal rate of 20% or more and less than 40%) | 3 (Herbicidal rate of 40% or more and less than 70%) | 5 (Herbicidal rate of 90% or more (almost completely withered)) | herbicidal effect on barnyard grass (H) (barnyard grass [1]; 320 g/ha): 3 (Herbicidal rate of 40% or more and less than 70%); herbicidal effect on Chinese sprangletop (D) (Chinese sprangletop; 320 g/ha): 3 (Herbicidal rate of 40% or more and less than 70%); herbicidal effect on rice flat sedge (E) (rice flat sedge; 320 g/ha): 2 (Herbicidal rate of 20% or more and less than 40%); F: southern crabgrass, herbicidal effect grade (southern crabgrass [2]): 0 (Herbicidal rate of 5% or less (almost no effect)); G: green foxtail, herbicidal effect grade (green foxtail [3]): 0 (Herbicidal rate of 5% or less (almost no effect)); H: barnyard grass, herbicidal effect grade (barnyard grass [4]): 0 (Herbicidal rate of 5% or less (almost no effect)); I: wild oat, herbicidal effect grade (wild oat [5]): 0 (Herbicidal rate of 5% or less (almost no effect)); J: blackgrass, herbicidal effect grade (blackgrass [6]): 0 (Herbicidal rate of 5% or less (almost no effect)); K: Italian ryegrass, herbicidal effect grade (Italian ryegrass [7]): 0 (Herbicidal rate of 5% or less (almost no effect)); L: windgrass, herbicidal effect grade (windgrass [8]): 0 (Herbicidal rate of 5% or less (almost no effect)); M: velvetleaf, herbicidal effect grade (velvetleaf [9]): 0 (Herbicidal rate of 5% or less (almost no effect)); N: redroot pigweed, herbicidal effect grade (redroot pigweed [10]): 1 (Herbicidal rate of 5% or more and less than 20%); O: lambsquarters, herbicidal effect grade (lambsquarters [11]): 3 (Herbicidal rate of 40% or more and less than 70%); P: chickweed, herbicidal effect grade (chickweed [12]): 0 (Herbicidal rate of 5% or less (almost no effect)); R: persian speedwell, herbicidal effect grade (persian speedwell [13]): 5 (Herbicidal rate of 90% or more (almost completely withered)) |
